Experimental data as given in PubChem BioAssay AID2060489 (Molecular Pharmacology Branch, DTP, NCI, 2025).

Test system: 922993-354-T-J3-PDC complex spheroids, viability
Assay: Anticancer human tumor 922993-354-T-J3-PDC patient-derived endometrial carcinoma cell line growth inhibition [GQUAD]
Conditions: for IC50: curve of first compound; for viability, T/C: stronger effect = lower value
Summary of the method: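 Viability of tumor cells grown as complex spheroids with endothelial and stromal cells, exposed to drug combinations. Top concentration at or near clinical Cmax (else 10 microM), diluted in half-log increments.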

[1] = second compound 0.0316 µM, first compound 0.0316 µM
[2] = second compound 0.0316 µM, first compound 0.316 µM
[3] = second compound 0.1 µM, first compound 0.0316 µM
[4] = second compound 0.1 µM, first compound 0.316 µM
[5] = second compound 0.316 µM, first compound 0.0316 µM
[6] = second compound 0.316 µM, first compound 0.316 µM
[7] = second compound 1 µM, first compound 0.0316 µM
[8] = second compound 1 µM, first compound 0.316 µM
[9] = second compound 3.16 µM, first compound 0.0316 µM
[10] = second compound 3.16 µM, first compound 0.316 µM
[11] = second compound 10 µM, first compound 0.0316 µM
[12] = second compound 10 µM, first compound 0.316 µM
[13] = second compound 0.0316 µM, first compound 0.1 µM
[14] = second compound 0.0316 µM, first compound 1 µM
[15] = second compound 0.0316 µM, first compound 3.16 µM
[16] = second compound 0.0316 µM, first compound 10 µM
[17] = second compound 0.1 µM, first compound 0.1 µM
[18] = second compound 0.1 µM, first compound 1 µM
[19] = second compound 0.1 µM, first compound 3.16 µM
[20] = second compound 0.1 µM, first compound 10 µM
[21] = second compound 0.316 µM, first compound 0.1 µM
[22] = second compound 0.316 µM, first compound 1 µM
[23] = second compound 0.316 µM, first compound 3.16 µM
[24] = second compound 0.316 µM, first compound 10 µM
[25] = second compound 1 µM, first compound 0.1 µM
[26] = second compound 1 µM, first compound 1 µM
[27] = second compound 1 µM, first compound 3.16 µM
[28] = second compound 1 µM, first compound 10 µM
[29] = second compound 3.16 µM, first compound 0.1 µM
[30] = second compound 3.16 µM, first compound 1 µM
[31] = second compound 3.16 µM, first compound 3.16 µM
[32] = second compound 3.16 µM, first compound 10 µM
[33] = second compound 10 µM, first compound 0.1 µM
[34] = second compound 10 µM, first compound 1 µM
[35] = second compound 10 µM, first compound 3.16 µM
[36] = second compound 10 µM, first compound 10 µM
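Further: spheroids exposed to compounds for seven days.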
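Wherever viability, T/C is given: 100% = DMSO vehicle control viability.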

## CC[C@@]1(O)C(=O)OCc2c1cc1n(c2=O)Cc2cc3c(CN(C)C)c(O)ccc3nc2-1 + CN(C)c1ccc(Nc2c3ccc(NC(=O)CCN4CCCC4)cc3nc3cc(NC(=O)CCN4CCCC4)ccc23)cc1
Second compound 0.0316 µM
  IC50: 279 nM
Second compound 0.1 µM
  IC50: > 316 nM
Second compound 0.316 µM
  IC50: 286 nM
Second compound 1 µM
  IC50: 265 nM
Second compound 3.16 µM
  IC50: 302 nM
Second compound 10 µM
  IC50: > 316 nM
Second compound 0.0316 µM, first compound 0.000999 µM
  viability, T/C: 100%
Second compound 0.0316 µM, first compound 0.00316 µM
  viability, T/C: 74.3%
Second compound 0.0316 µM, first compound 0.00999 µM
  viability, T/C: 99.8%
[1]
  viability, T/C: 91.9%
Second compound 0.0316 µM, first compound 0.0999 µM
  viability, T/C: 77.3%
[2]
  viability, T/C: 46.6%
Second compound 0.1 µM, first compound 0.000999 µM
  viability, T/C: 120%
Second compound 0.1 µM, first compound 0.00316 µM
  viability, T/C: 110%
Second compound 0.1 µM, first compound 0.00999 µM
  viability, T/C: 89.3%
[3]
  viability, T/C: 82.7%
Second compound 0.1 µM, first compound 0.0999 µM
  viability, T/C: 88.9%
[4]
  viability, T/C: 43.4%
Second compound 0.316 µM, first compound 0.000999 µM
  viability, T/C: 90.5%
Second compound 0.316 µM, first compound 0.00316 µM
  viability, T/C: 98.4%
Second compound 0.316 µM, first compound 0.00999 µM
  viability, T/C: 79.2%
[5]
  viability, T/C: 84%
Second compound 0.316 µM, first compound 0.0999 µM
  viability, T/C: 92.5%
[6]
  viability, T/C: 46.2%
Second compound 1 µM, first compound 0.000999 µM
  viability, T/C: 100%
Second compound 1 µM, first compound 0.00316 µM
  viability, T/C: 106%
Second compound 1 µM, first compound 0.00999 µM
  viability, T/C: 97.7%
[7]
  viability, T/C: 94.5%
Second compound 1 µM, first compound 0.0999 µM
  viability, T/C: 76.8%
[8]
  viability, T/C: 45.1%
Second compound 3.16 µM, first compound 0.000999 µM
  viability, T/C: 101%
Second compound 3.16 µM, first compound 0.00316 µM
  viability, T/C: 109%
Second compound 3.16 µM, first compound 0.00999 µM
  viability, T/C: 99.6%
[9]
  viability, T/C: 117%
Second compound 3.16 µM, first compound 0.0999 µM
  viability, T/C: 115%
[10]
  viability, T/C: 47.6%
Second compound 10 µM, first compound 0.000999 µM
  viability, T/C: 109%
Second compound 10 µM, first compound 0.00316 µM
  viability, T/C: 115%
Second compound 10 µM, first compound 0.00999 µM
  viability, T/C: 110%
[11]
  viability, T/C: 97.3%
Second compound 10 µM, first compound 0.0999 µM
  viability, T/C: 115%
[12]
  viability, T/C: 59.4%

## O=c1[nH]cc(F)c(=O)[nH]1 + Cc1cnc(CNC(=O)c2c(=O)c3ccc(N4CCCN(C)CC4)nc3n3c2sc2ccccc23)cn1
Second compound 0.0316 µM
  IC50: > 10000 nM
Second compound 0.1 µM
  IC50: > 10000 nM
Second compound 0.316 µM
  IC50: < 31.6 nM
Second compound 1 µM
  IC50: < 31.6 nM
Second compound 3.16 µM
  IC50: < 31.6 nM
Second compound 10 µM
  IC50: < 31.6 nM
[1]
  viability, T/C: 85.8%
[13]
  viability, T/C: 69.8%
[2]
  viability, T/C: 79.3%
[14]
  viability, T/C: 96.3%
[15]
  viability, T/C: 82.1%
[16]
  viability, T/C: 57.4%
[3]
  viability, T/C: 65.7%
[17]
  viability, T/C: 49.3%
[4]
  viability, T/C: 49.7%
[18]
  viability, T/C: 61.5%
[19]
  viability, T/C: 63.1%
[20]
  viability, T/C: 60.1%
[5]
  viability, T/C: 50.6%
[21]
  viability, T/C: 47.1%
[6]
  viability, T/C: 45.5%
[22]
  viability, T/C: 42.8%
[23]
  viability, T/C: 48.7%
[24]
  viability, T/C: 49.3%
[7]
  viability, T/C: 54.1%
[25]
  viability, T/C: 38.2%
[8]
  viability, T/C: 40.8%
[26]
  viability, T/C: 42.6%
[27]
  viability, T/C: 50%
[28]
  viability, T/C: 44.9%
[9]
  viability, T/C: 46%
[29]
  viability, T/C: 50.6%
[10]
  viability, T/C: 43.3%
[30]
  viability, T/C: 53.6%
[31]
  viability, T/C: 51.5%
[32]
  viability, T/C: 46.4%
[11]
  viability, T/C: 44.2%
[33]
  viability, T/C: 44%
[12]
  viability, T/C: 43.7%
[34]
  viability, T/C: 37.2%
[35]
  viability, T/C: 47.4%
[36]
  viability, T/C: 46.1%

## Cc1cccc(N(C)C(=O)C2C(O)CCN2c2nc(C)cc(C(F)(F)F)c2C#N)c1 (stereo unspecified) + CN(C)c1ccc(Nc2c3ccc(NC(=O)CCN4CCCC4)cc3nc3cc(NC(=O)CCN4CCCC4)ccc23)cc1
Second compound 0.0316 µM
  IC50: > 10000 nM
Second compound 0.1 µM
  IC50: > 10000 nM
Second compound 0.316 µM
  IC50: > 10000 nM
Second compound 1 µM
  IC50: > 10000 nM
Second compound 3.16 µM
  IC50: > 10000 nM
Second compound 10 µM
  IC50: > 10000 nM
[1]
  viability, T/C: 80.8%
[13]
  viability, T/C: 89.6%
[2]
  viability, T/C: 80.6%
[14]
  viability, T/C: 92.5%
[15]
  viability, T/C: 90.1%
[16]
  viability, T/C: 95.4%
[3]
  viability, T/C: 89.6%
[17]
  viability, T/C: 111%
[4]
  viability, T/C: 87.5%
[18]
  viability, T/C: 103%
[19]
  viability, T/C: 94.9%
[20]
  viability, T/C: 67.6%
[5]
  viability, T/C: 90.4%
[21]
  viability, T/C: 105%
[6]
  viability, T/C: 95.5%
[22]
  viability, T/C: 91.8%
[23]
  viability, T/C: 83.2%
[24]
  viability, T/C: 69.6%
[7]
  viability, T/C: 85.3%
[25]
  viability, T/C: 82.7%
[8]
  viability, T/C: 101%
[26]
  viability, T/C: 93.6%
[27]
  viability, T/C: 97.1%
[28]
  viability, T/C: 82.1%
[9]
  viability, T/C: 96.8%
[29]
  viability, T/C: 102%
[10]
  viability, T/C: 104%
[30]
  viability, T/C: 106%
[31]
  viability, T/C: 99.3%
[32]
  viability, T/C: 91.5%
[11]
  viability, T/C: 105%
[33]
  viability, T/C: 133%
[12]
  viability, T/C: 113%
[34]
  viability, T/C: 106%
[35]
  viability, T/C: 103%
[36]
  viability, T/C: 80.3%
